Conditions: 101.3 kPa, Liquid, Vibrating tube method

NCCCO [3-amino-1-propanol]
Conditions	mass density [kg/m3]
293.15 K	987.5
298.15 K	983.6
303.15 K	979.6
308.15 K	975.5
313.15 K	971.5
318.15 K	967.5
323.15 K	963.4
328.15 K	959.3
333.15 K	955.8
338.15 K	951.7
343.15 K	947.6
348.15 K	943.5
353.15 K	939.3
